Measured values taken from ChEMBL document CHEMBL6078667, “Synthesis, Biological Evaluation, and Mechanistic Insights of Rubrolide Analogues as Antitumor Agents” (J Nat Prod, 2024).
Activity calls are given as the source filed them. No cut-off for these calls is given here.

What was measured:
MGC-803 [1] = assay: Cytotoxicity against human MGC-803 cells assessed as inhibition of cell growth at 10 uM measured after 72 hrs by MTT assay relative to control; format: functional
HeLa [2] = assay: Cell cycle arrest in human HeLa cells assessed as accumulation of cells at G0/G1 phase at 0.4 uM measured after 24 hrs by PI staining based flow cytometric analysis (reference value: 54.7 %); format: functional
HCT-116 [3] = assay: Cytotoxicity against human HCT-116 cells assessed as survival rate at 10 uM measured after 72 hrs by MTT assay relative to control; format: functional; details: read-out: Survival
HeLa [4] = assay: Induction of apoptosis in human HeLa cells assessed as viable cells at 0.4 uM incubated for 24 hrs by Annexin V-FITC/PI staining based flow cytometric analysis (reference value: 90.6 %); format: functional; details: read-out: Activity
HeLa [5] = assay: Upregulation of phosphorylated PERK expression in human HeLa cells at 0.2 to 0.4 uM measured after 48 hrs by Western blot analysis; format: functional, cell-based; details: dose 0.2-0.4 µM
HCT-116 [6] = assay: Cell cycle arrest in human HCT-116 cells assessed as accumulation of cells at G2/M phase at 0.4 uM measured after 24 hrs by PI staining based flow cytometric analysis (reference value: 26.4 %); format: functional
HeLa [7] = assay: Induction of apoptosis in human HeLa cells assessed as early apoptotic cells at 0.2 uM incubated for 24 hrs by Annexin V-FITC/PI staining based flow cytometric analysis (reference value: 2.35 %); format: functional
MGC-803 [8] = assay: Cytotoxicity against human MGC-803 cells assessed as inhibition of cell growth incubated for 72 hrs by MTT assay; format: functional, cell-based; details: MGC-803, 72 h
HeLa [9] = assay: Cell cycle arrest in human HeLa cells assessed as increase in cyclin B1 expression at 0.2 to 0.4 uM incubated for 24 hrs by Western blot analysis; format: functional, cell-based; details: dose 0.2-0.4 µM
HCT-116 [10] = assay: Upregulation of phosphorylated PERK expression in human HCT-116 cells at 0.2 to 0.4 uM measured after 48 hrs by Western blot analysis; format: functional, cell-based; details: dose 0.2-0.4 µM
MCF7 [11] = assay: Cytotoxicity against human MCF7 cells assessed as inhibition of cell growth incubated for 72 hrs by MTT assay; format: functional, cell-based; details: MCF7, 72 h
HCT-116 [12] = assay: Induction of apoptosis in human HCT-116 cells assessed as viable cells at 0.2 uM incubated for 24 hrs by Annexin V-FITC/PI staining based analysis (reference value: 92.4 %); format: functional; details: read-out: Activity
[13] = Drug localization in human HeLa cell endoplasmic reticulum incubated for 8 hrs by […] dye based fluorescence microscopic analysis; format: ADME, subcellular
HCT-116 [14] = assay: Induction of apoptosis in human HCT-116 cells assessed as necrotic cells at 0.2 uM incubated for 24 hrs by Annexin V-FITC/PI staining based analysis (reference value: 0.083 %); format: functional
HCT-116 [15] = assay: Cell cycle arrest in human HCT-116 cells assessed as accumulation of cells at G2/M phase at 0.2 uM measured after 24 hrs by PI staining based flow cytometric analysis (reference value: 26.4 %); format: functional
HeLa [16] = assay: Induction of ROS production in human HeLa cells at 0.2 to 0.4 uM incubated for 24 hrs by DCFH-DA probe based flow cytometric analysis; format: functional, cell-based; details: dose 0.2-0.4 µM
[17] = Toxicity in female BALB/c nude mouse xenografted with human HeLa cells assessed as body weight loss at 5 to 20 mg/kg, ip administered as liposome formulation once daily for 13 days; format: organism-based; details: in vivo, 312 h, dose 5-20 mg/kg, time 13 day
HeLa [18] = assay: Induction of apoptosis in human HeLa cells assessed as viable cells at 0.2 uM incubated for 24 hrs by Annexin V-FITC/PI staining based flow cytometric analysis (reference value: 90.6 %); format: functional; details: read-out: Activity
HeLa [19] = assay: Cell cycle arrest in human HeLa cells assessed as accumulation of cells at G0/G1 phase at 0.2 uM measured after 24 hrs by PI staining based flow cytometric analysis (reference value: 54.7 %); format: functional
HCT-116 [20] = assay: Cytotoxicity against human HCT-116 cells assessed as inhibition of cell growth incubated for 72 hrs by MTT assay; format: functional, cell-based; details: HCT-116, 72 h
HCT-116 [21] = assay: Induction of ROS production in human HCT-116 cells at 0.2 to 0.4 uM incubated for 24 hrs by DCFH-DA probe based flow cytometric analysis; format: functional, cell-based; details: dose 0.2-0.4 µM
HCT-116 [22] = assay: Upregulation of phosphorylated eIF2alpha expression in human HCT-116 cells at 0.2 to 0.4 uM measured after 48 hrs by Western blot analysis; format: functional, cell-based; details: dose 0.2-0.4 µM
MCF7 [23] = assay: Cytotoxicity against human MCF7 cells assessed as inhibition of cell growth at 10 uM measured after 72 hrs by MTT assay relative to control; format: functional
[24] = Drug localization in human HeLa cell mitochondria incubated for 8 hrs by Mito-tracker green dye based fluorescence microscopic analysis; format: ADME
HeLa [25] = assay: Induction of apoptosis in human HeLa cells assessed as necrotic cells at 0.4 uM incubated for 24 hrs by Annexin V-FITC/PI staining based flow cytometric analysis (reference value: 0.44 %); format: functional
[26] = Drug localization in human HCT-116 cell endoplasmic reticulum incubated for 8 hrs by […] dye based fluorescence microscopic analysis; format: ADME, subcellular; details: hct-116, 8 h

Question: With `COc1ccc(C2=CC(=O)O/C2=C\c2ccc(O)cc2)cc1` as the compound, how does the inhibition at 10 µM (MGC-803 [1]) read?
Answer: > 50%

Question: What about the Activity (HeLa [2]) of the same compound?
Answer: 8.71%

Question: What about the viability at 10 µM (HCT-116 [3]) of the same compound?
Answer: 19.7%

Question: And the viability at 0.4 µM (HeLa [4])?
Answer: 47.9%

Question: And the Activity (HeLa [5])?
Answer: Active; Compound Impacts Endoplasmic Reticulum Stress Related Perk-Eif2Alpha-Chop Signalling Pathway

Question: And the Activity (HCT-116 [6])?
Answer: 31.6%

Question: And the Activity (HeLa [7])?
Answer: 4.86%

Question: And the IC50 (MGC-803 [8])?
Answer: 1100 nM

Question: What about the Activity (HeLa [9]) of the same compound?
Answer: Active

Question: And the Activity (HCT-116 [10])?
Answer: Active; Compound Impacts Endoplasmic Reticulum Stress Related Perk-Eif2Alpha-Chop Signalling Pathway

Question: And the IC50 (MCF7 [11])?
Answer: 1000 nM

Question: And the viability at 0.2 µM (HCT-116 [12])?
Answer: 82.7%

Question: What about the Drug uptake [13] of the same compound?
Answer: Active

Question: What about the Activity (HCT-116 [14]) of the same compound?
Answer: 5.89%

Question: And the Activity (HCT-116 [15])?
Answer: 22.8%

Question: What about the Activity (HeLa [16]) of the same compound?
Answer: Active

Question: What about the Activity [17] of the same compound?
Answer: Non-toxic

Question: What about the viability at 0.2 µM (HeLa [18]) of the same compound?
Answer: 83.2%

Question: And the Activity (HeLa [19])?
Answer: 18.8%

Question: What about the IC50 (HCT-116 [20]) of the same compound?
Answer: 200 nM

Question: What about the Activity (HCT-116 [21]) of the same compound?
Answer: Active

Question: And the Activity (HCT-116 [22])?
Answer: Active; Compound Impacts Endoplasmic Reticulum Stress Related Perk-Eif2Alpha-Chop Signalling Pathway

Question: And the inhibition at 10 µM (MCF7 [23])?
Answer: > 50%

Question: And the Drug uptake [24]?
Answer: Not_active

Question: What about the Activity (HeLa [25]) of the same compound?
Answer: 1%

Question: And the Drug uptake [26]?
Answer: Active
